These results are taken from US9464053B2, “Compositions for reducing Aβ 42 production and their use in treating alzheimer's disease (AD)” (KAREUS THERAPEUTICS SA, priority 2010, dated 2016).

One may read the IC50 as the concentration that gives 50% inhibition. Usually melting point stands for the temperature, or range, at which the solid turns liquid.

Counter-ions that a name gives are not always drawn.

One data set has as its system Aβ42 secretion. The data set can be described thus: Reduction of Aβ42 production in human neuronal SH-SY5Y cells (sandwich ELISA of cell media). Type of data set: cell-based. The following applies: SH-SY5Y cells incubated overnight, Aβ42 in media by sandwich ELISA, read-out: Aβ42 IC50. The method, then: We used the human Neuroblastoma SH-SY5Y cells for drug testing as a model for Aβ42 production. […] Cell toxicity was monitored using the MTT assay and all data reported are corrected for any cell loss.
The capture antibody, detection antibody and secondary antibody as well as standard purified preparations of Aβ42 were obtained from Sigma-Aldrich. Cells were cultured for 24 h in the presence or absence of compounds and the conditioned medium was subjected to sELISA.
Cells were incubated overnight with increasing concentrations the compounds. The cell media was then harvested and Aβ42 in the media was quantitated using sandwich ELISA.
For `C=CCc1ccc(OC(=O)C(CCSC)NC(=O)c2cccnc2)c(OC)c1` (centres unmarked) [Compound 2, 4-methyl-sulfanyl-2-[(pyridine-3carbonyl)-amino] butyric acid-4-allyl-2-methoxy phenyl ester], the IC50 was greater than 52.2 µM. `C=CCc1ccc(OC(=O)C(NC(=O)c2cccnc2)C(C)C)c(OC)c1` (centres unmarked) [Compound 3, 3-methyl-2-[pyridine-3-carbonyl]-amino-butyric acid-4-allyl-2-methoxy phenyl ester]: the IC50 is greater than 52.2 µM. With `C=CCc1ccc(OC(=O)C(Cc2c[nH]c3ccccc23)NC(=O)c2cccnc2)c(OC)c1` (centres unmarked) [Compound 4], the IC50 was greater than 52.2 µM. Consider `C=CCc1ccc(OC(=O)C(Cc2ccc(O)cc2)NC(=O)c2cccnc2)c(OC)c1` (centres unmarked) [Compound 5, 3-(4-hydroxyphenyl)2-[(pyridine-3-carbonyl)amino]propionic acid-4-allyl-2-methoxy phenyl ester], for which the IC50 was greater than 52.2 µM. Still for that read-out and setting: next, `C=CCc1ccc(OC(=O)C(NC(=O)c2cccnc2)C(C)CC)c(OC)c1` (centres unmarked) [Compound 6, 3-methyl-2-[pyridine-3-carbonyl]-amino-pentanoic acid-4-allyl-2-methoxy phenyl ester]: greater than 52.2 µM; `C=CCc1ccc(OC(=O)C(CCC(=O)O)NC(=O)c2cccnc2)c(OC)c1` (centres unmarked) [Compound 7, 2-[pyridine-3-carbonyl-amino]-pentane dioic acid-1-(4-allyl-2-methoxyphenyl)ester]: greater than 52.2 µM; `C=CCc1ccc(OC(=O)C2CCCN2C(=O)c2cccnc2)c(OC)c1` (centres unmarked) [Compound 10, 1-(pyridine-3-carbonyl)-pyrrolidine-2-carboxylic acid 4-allyl-2-methoxy-phenyl ester]: 33.4 µM. Still for that read-out and setting: next, `C=CCc1ccc(OC(=O)CNC(=O)c2cccnc2)c(OC)c1` [Compound 11, [(pyridine-3-carbonyl)-amino]-acetic acid 4-allyl-2-methoxy-phenyl ester]: 15.9 µM; `C=CCc1ccc(OC(=O)CCCNC(=O)c2cccnc2)c(OC)c1` [Compound 13, 4[(pyridine-3-carbonyl)-amino]-butyric acid-4-allyl-2-methoxy phenyl ester]: 26.1 µM.

On to `C=CCc1ccc(OC(=O)C(C)NC(=O)c2cccnc2)c(OC)c1` (centres unmarked) [Compound 14, 4-allyl-2-methoxyphenyl 2-(nicotinamido) propanoate], for which the IC50 worked out at 15.4 µM. Still for that read-out and setting: to `C=CCc1ccc(OC(=O)C(CC(C)C)NC(=O)c2cccnc2)c(OC)c1` (centres unmarked) [Compound 15, 4-methyl-2-[pyridine-3-carbonyl]-amino-pentanoic acid-4-allyl-2-methoxy phenyl ester] belongs greater than 52.2 µM.

Staying with this data set, now noted: SH-SY5Y, read-out: Aβ42 IC50.
On to `C=CCc1ccc(OC(=O)COC(=O)c2cccnc2)c(OC)c1` [Compound 8, nicotinic acid 4-allyl-2-methoxy-phenoxycarbonylmethyl ester], for which the IC50 is greater than 15 µM.

Test system in another data set: not given
Assay: not given
Details: not given
For the molecule `C=CCc1ccc(OC(=O)COC(=O)c2cccnc2)c(OC)c1` (as salt: hydrochloride) [Compound 8, nicotinic acid 4-allyl-2-methoxy-phenoxycarbonylmethyl ester], the melting point fell in the range of 109.3 to 111.2 °C.

For another data set, the system named is Aβ-42 levels in brain. The data set can be described thus: Brain Aβ-42 levels in rat after two weeks oral treatment (ELISA). It counts as in vivo. Particulars: vs Control; Simvastatin 250 mg/kg oral; group terminated on day 12. The method, then:
Animals are randomized into different treatment groups based on body weight. The test compounds are administered orally for 2 weeks while the control animals are administered the vehicle alone.
At the end of the study, animals are sacrificed 2 hours after the last dose and brain samples are excised and immediately frozen on dry ice. The frozen brains are homogenized in 3 volumes (w/v) of ice-cold 0.2% Diethylamine containing 50 mM NaCl, pH 10, and protease inhibitors, and then centrifuged at 15000 rpm at 4° C. for 30 min using a centrifuge. The resulting supernatant is retained as the soluble fraction and neutralized by addition of 10% 0.5 M Tris-HCl, pH 6.8.
Ar3-42 levels in brain tissue extracts were determined by ELISA. […] 100 μL of this was coated per well in a 96 well immunoplate (NUNC) at 4° C. for 16-18 hours. The plate was washed 3× with 230 μL of wash buffer. The wells were then blocked with 150 μL of blocking buffer for 1 hour. The plate was washed 3× with 230 μL of wash buffer. Samples, standard (2500-1.1 ng/ml) and blank were added to the appropriate wells and incubated with mild shaking for 2 hours. The plate was then washed 3× with 230 μL of wash buffer. […] 100 μL of this was added per well and incubated with mild shaking for 2 hours. The plate was washed 3× with 230 μl of wash buffer. 100 lit of Detection antibody, Anti-rabbit IgG whole molecule HRP conjugate (Sigma A6154 diluted 1:1000 with 1% BSA) added in to the wells and incubated for 2 hours with mild shaking. The plate was washed 3× with 230 μl of wash buffer followed by 100 μL of Strepavidin HRP (1:200 diluted with 1% BSA). The plate was 3× with 230 μL of wash buffer and 100 μL of TMB/H2O2 substrate was added and incubated for 20 minutes. The reaction was topped by adding 50 μL of 2N H2SO4 and the absorbance was measured at 450/570 nm in a microplate reader (BioTek)
(ELISA stands for enzyme-linked immunosorbent assay.)
Turning to `CCC(C)(C)C(=O)O[C@H]1C[C@@H](C)C=C2C=C[C@H](C)[C@H](CC[C@@H]3C[C@@H](O)CC(=O)O3)[C@H]21` [Simvastatin, reference compound], the Percentage change is 8%.
